The text below walks through data of patent publication US20250215026A1, “Deuterated Compounds, Compositions and Uses” (BioJive LLC, priority 2018, published 2025).

Series [1] can be described thus: Liposome leakage of sulforhodamine B by fluorescence correlation spectroscopy, +/- Fe2+/ascorbate. The protocol: The equipment set up and peak intensity analysis was conducted as described in Perevoshchikova, et al., Biochim. Biophys. Acta 1778, 2182-2190 (2008). Briefly, fluorescence excitation and detection utilized a Nd: YAG solid state laser with a 532-nm beam attached to an Olympus IMT-2 epifluorescent inverted microscope equipped with a 40×, NA 1.2 water immersion objective (Carl Zeiss, Jena, Germany). The fluorescence light passed through an appropriate dichroic beam splitter and a long-pass filter and was imaged onto a 50-μm core fiber coupled to an avalanche photodiode (SPCM-AQR-13-FC, PerkinElmer Optoelectronics, Vaudreuil, Quebec, Canada). The signal from an output was sent to a PC using a fast interface card (Flex02-01D/C, Correlator.com, Bridgewater, NJ). The data acquisition time was 30 s. The fluorescence was recorded from the confocal volume located at about 50 μm above the coverslip surface with 50 μL of the buffer solution added. Most of the data were collected under the conditions of stirring a suspension by a paddle-shaped 3-mm plastic bar rotated at 600 rpm. To calibrate the setup, the fluorescence autocorrelation function of Rhodamine 6G solution was recorded. Assuming the diffusion coefficient of the dye to be 2.5×10^−6 cm^2/s, the value of the confocal radius is circa ω=0.42 μm. The correlated fluorescence emission signals were fitted to the three-dimensional autocorrelation function as described in Hess, et al., Biochemistry 41; 697-705 (2002).
SRB-loaded liposomes were suspended in an aqueous solution of Fe^2+ and ascorbate […], prepared from lipid mixtures containing linoleoyl stearoyl phosphatidylcholine (H-Lin-PC) as the bulk lipid (unless otherwise stated) with various contents of a series of 1-stearoyl phosphatidylcholines, including compounds of Formula (II). To measure G(τ→0) more precisely, the FCS experiments were performed under stirring conditions. […] The reduction of the G(τ→0) amplitude apparently reflected an increase in the number of fluorescent particles due to SRB release from liposomes. […]

Series [2] in a line: Incorporation of orally dosed D-DHA into retina by nanoSIMS. It counts as in vivo, mouse. The settings on record: after three days of dosing. The protocol: In this example, D-DHA (20 mg; 1 mg/ul) was administered orally as ethyl ester to a wild-type mouse by gavage for three consecutive days in addition to unrestricted regular DHA-free rodent diet. Mouse retina was harvested and then fixed and embedded in resin. Retinal sections were analyzed with nanoscale secondary ion mass spectrometry (nanoSIMS) to determine the incorporation rates of D-DHA into retinal cells by measuring the relative enrichment of DHA-bound deuterium over its natural tissue abundance. The D-DHA/DHA substitution rate of natural DHA in the outer segments was calculated by the ratio of increased deuterium abundance vs. total hydrogen contribution of DHA in outer segments.

In the case of `[2H]C([2H])(/C=C\CCCCC)/C=C\CCCCCCCC(=O)O[C@H](COC(=O)CCCCCCCCCCCCCCCCC)COP(=O)([O-])OCC[N+](C)(C)C` [D2-Lin-PC, 1-stearoyl-2-(11,11-D2-linoleyl)-sn-glycero-3-phosphatidylcholine], in series [1] (10% D2-Lin-PC in H-Lin-PC, 0, 10, 20 min, FIG. 1A), the “effect of incubation with Fe/ascorbate on G(τ→0) amplitude of SRB” value is “led to a decrease in the G(τ→0) amplitude”. Moreover, in series [1] (25% D2-Lin-PC in H-Lin-PC, FIG. 1B), the “effect of incubation with Fe2+/ascorbate on G(τ→0) amplitude of SRB” value is reported as “did not reduce the amplitude of G(τ→0) or reduced it to a very low extent”. In addition, the “difference between extent of liposome leakage α with and without Fe2+/ascorbate” value in series [1] (100% of the deuterated lipid, FIG. 2A) is reported as “very low”. For the setting “FIG. 6”, the “relative strength of protection of H-Lin-PC bulk: % in bilayer” value amounted to 25%. For the same compound, for the setting “t=10 min, in H-Lin-PC, FIG. 3”, the “% of deuterated lipid giving very low level of ΔA234 and very low difference in α +/- Fe2+/ascorbate” value is recorded as at least 20%.
Consider `[2H]C([2H])(/C=C\CC)/C=C\C/C=C\CCCCCCCC(=O)O[C@H](COC(=O)CCCCCCCCCCCCCCCCC)COP(=O)([O-])OCC[N+](C)(C)C` [D2-Lnn-PC, 1-stearoyl-2-(14,14-D2-linolenyl)-sn-glycero-3-phosphatidylcholine], for which the “percentage needed for protection of H-Lin-PC matrix, relative to D4-Lnn-PC” value (FIG. 6) is on record as “about twofold as high as that of D4-Lnn-PC”.
Regarding `[2H]C([2H])(/C=C\CC)/C=C\C([2H])([2H])/C=C\CCCCCCCC(=O)O[C@H](COC(=O)CCCCCCCCCCCCCCCCC)COP(=O)([O-])OCC[N+](C)(C)C` [D4-Lnn-PC, 1-stearoyl-2-(11,11,14,14-D4-linolenyl)-sn-glycero-3-phosphatidylcholine], the “relative strength of protection of H-Lin-PC bulk: % in bilayer” value (FIG. 6) is reported as 17%.
On the same count and under the same terms, the value for `[2H]C([2H])(/C=C\CCCCC)/C=C\C([2H])([2H])/C=C\C([2H])([2H])/C=C\CCCC(=O)O[C@H](COC(=O)CCCCCCCCCCCCCCCCC)COP(=O)([O-])OCC[N+](C)(C)C` [D6-Ara-PC, 1-stearoyl-2-(7,7,10,10,13,13-D6-arachidonoyl)-sn-glycero-3-phosphatidylcholine] was 12%; that for `[2H]C([2H])(/C=C\CC)/C=C\C([2H])([2H])/C=C\C([2H])([2H])/C=C\C([2H])([2H])/C=C\CCCC(=O)O[C@@H](COC(=O)CCCCCCCCCCCCCCCCC)COP(=O)([O-])OCC[N+](C)(C)C` [D8-EPA-PC, 1-stearoyl-2-(7,7,10,10,13,13,16,16-D8-eicosapentaenoyl)-sn-glycero-3-phosphatidylcholine] was 10%.
On to `[2H]C([2H])(/C=C\CC)/C=C\C([2H])([2H])/C=C\C([2H])([2H])/C=C\C([2H])([2H])/C=C\C([2H])([2H])/C=C\CCC(=O)O[C@H](COC(=O)CCCCCCCCCCCCCCCCC)COP(=O)([O-])OCC[N+](C)(C)C` [D10-DHA-PC, 1-stearoyl-2-(6,6,9,9,12,12,15,15,18,18-D10-docosahexaenoyl)-sn-glycero-3-phosphatidylcholine], for which, for the setting “diene conjugates assay, H-Lin-PC matrix”, the “protection, fold stronger than for D6-Ara” value amounted to 10 fold. In addition, the “level suppressing lipid autooxidation, diene conjugates assay” value (in the H-Lin-PC matrix, FIG. 6) was at most 1%. In addition, the “protection from oxidative stress compared to other deuterated lipids” value (undeuterated H-Lin-PC matrix, FIG. 6) is listed as “substantially enhanced protection from oxidative stress”.
For the compound `[2H]C([2H])(/C=C\CC)/C=C\C([2H])([2H])/C=C\C([2H])([2H])/C=C\C([2H])([2H])/C=C\C([2H])([2H])/C=C\CCC(=O)OCC` [D-DHA, 6,6,9,9,12,12,15,15,18,18-D10-docosahexaenoic acid ethyl ester], the “level reached in retinal tissues after oral dosing” value in series [2] was “above 1%”.
